These results are taken from patent US20140213538A1, “LYSOPHOSPHATIDIC ACID RECEPTOR ANTAGONISTS” (InterMune, Inc., priority 2013, published 2014).

A value given as a limit tells only on which side of the number the result lay.

One assay concerns the target LPA1 (Homo sapiens, UniProt Q92633). In words: LPA1 Migration Assay (Oris). The assay is classed as cell-based. Details: host or cells: primary fibroblasts (lung, dermal), HFL-1, 3T3 and CHO cells expressing LPA1R. The note with it: read-out: Cell Migration EC50. An excerpt: LPA1 Migration Assay Migration of primary fibroblasts (including lung, dermal), HFL-1, 3T3 and CHO cells expressing LPA1R were monitored using the Oris™ assay (Platypus Technologies, Madison, Wis.). These cells were dye (Cell Tracker Green™) loaded and serum starved for 12-24 hrs. In response to chemoattractants such as LPA and serum, the cells migrated inward in to the exclusion (detection) zone. After fixing, fluorescent cells in the detection zone were counted using a high content reader. The ability of LPA1 antagonists to inhibit cell migration is quantified by plotting cell number vs. compound concentration and curve fitting the resulting dose-response curve to a 4 parameter logistic function.

A further assay addresses T1, LPA/S1P GPCR of interest (Homo sapiens, UniProt Q92633).
T1 construct: host or cells: CHO
In words: Beta-Arrestin based assay (PathHunter). The format is cell-based. The method, boiled down: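 EA Parental CHO cells (DiscoverX) were transfected with FuGENE (Roche) using CMV promoter-driven DNA constructs encoding the LPA/S1P GPCR of interest fused to a ProLink tag. Beta-arrestin recruitment in agonist mode was assessed 24-48 hrs later with PathHunter kits. Tests ran in quadruplicate in white 384 well plates, and end point luminescence was fit to a 4 parameter logistic function.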

T1 sequence (Q92633 whole entry): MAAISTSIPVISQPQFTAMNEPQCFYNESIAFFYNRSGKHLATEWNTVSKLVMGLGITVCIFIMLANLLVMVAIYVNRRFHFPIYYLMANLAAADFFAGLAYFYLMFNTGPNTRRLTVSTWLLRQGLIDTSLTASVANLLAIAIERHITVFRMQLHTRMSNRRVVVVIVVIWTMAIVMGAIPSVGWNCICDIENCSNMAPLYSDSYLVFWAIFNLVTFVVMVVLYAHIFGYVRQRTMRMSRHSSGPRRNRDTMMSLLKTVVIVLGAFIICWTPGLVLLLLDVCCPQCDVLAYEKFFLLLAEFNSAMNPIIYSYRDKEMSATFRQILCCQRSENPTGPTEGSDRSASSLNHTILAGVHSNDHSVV
LPA1, sequence (Q92633 whole entry): as above

As for `CCOC(=O)c1cccnc1Oc1c(F)cc(-c2ccc(-c3nnn(C)c3NC(=O)O[C@H](C)c3ccccc3)cc2)cc1F` [IT476], the EC50 on LPA1 was greater than 500 nM; at LPA/S1P GPCR of interest it was less than 50 nM.

For the compound `Cc1noc(-c2ccc(-c3ccc(Oc4nc5ccccc5cc4C(=O)O)cc3)cc2)c1NC(=O)O[C@H](C)c1ccccc1` [IT482], the EC50 at LPA1 was 50 to 500 nM; at LPA/S1P GPCR of interest it was less than 50 nM.

Take `C[C@@H](OC(=O)Nc1c(-c2cc3sc(-c4cc(Cl)c(C5(C(=O)O)CC5)cc4F)cc3s2)nnn1C)c1ccccc1` [IT285]: the figures for the EC50 at LPA1 and at LPA/S1P GPCR of interest were 50 to 500 nM and less than 50 nM, respectively.

Consider `Cc1nsc(-c2ccc(NC(=O)c3csc(C4(C(=O)O)CC4)c3)cc2)c1NC(=O)O[C@H](C)c1ccccc1` [IT193], for which the values for the EC50 at LPA1 and at LPA/S1P GPCR of interest were greater than 500 nM and 50 to 500 nM, respectively.

In the case of `C[C@@H](OC(=O)Nc1c(-c2ccc(-c3cc(F)c(OC(C)(C)C(=O)O)c(F)c3)cc2)cnn1C)c1ccccc1` [IT503], the figures for the EC50 on LPA1 and at LPA/S1P GPCR of interest were greater than 500 nM and 50 to 500 nM, respectively.

Take `C[C@@H](OC(=O)Nc1cccnc1C#Cc1cc2sc(C3(C(=O)O)CC3)cc2s1)c1ccccc1` [IT115]: the values for the EC50 on LPA1 and at LPA/S1P GPCR of interest were greater than 500 nM and 50 to 500 nM, respectively.

Consider `C[C@@H](OC(=O)Nc1c(-c2ccc(-c3ccc(Oc4ccc(F)cc4C(=O)O)cc3)cc2)cnn1C)c1ccccc1` [IT461], for which the EC50 at LPA1 is 50 to 500 nM; on LPA/S1P GPCR of interest, less than 50 nM.

With `Cc1nsc(-c2cc3sc(-c4cnc(C5(C(=O)O)CC5)c(F)c4)cc3s2)c1NC(=O)O[C@H](C)c1ccccc1` [IT394], the EC50 at LPA1 was 50 to 500 nM; at LPA/S1P GPCR of interest, less than 50 nM.

Turning to `Cc1c(C#Cc2cnn(C)c2NC(=O)O[C@H](C)c2ccccc2)sc2c(C)c(C3(C(=O)O)CC3)sc12` [IT110], the EC50 at LPA1 is 50 to 500 nM; on LPA/S1P GPCR of interest, less than 50 nM.

Regarding `Cc1noc(-c2ccc(-c3ccc(OC(C)(C)C(=O)O)c(F)c3)cc2)c1NC(=O)O[C@H](C)c1ccccc1` [IT506], the values for the EC50 at LPA1 and on LPA/S1P GPCR of interest were 50 to 500 nM and less than 50 nM, respectively.

On to `C[C@@H](OC(=O)Nc1c(-c2cc3sc(-c4cc(Cl)c(CC(=O)O)cc4F)cc3s2)nnn1C)c1ccccc1` [IT186], for which the EC50 at LPA1 and on LPA/S1P GPCR of interest was greater than 500 nM in each case.

For the compound `Cc1noc(-c2ccc(-c3ccc(NS(C)(=O)=O)cc3)cc2)c1NC(=O)O[C@H](C)c1ccccc1` [IT195], the EC50 at LPA1 was greater than 500 nM; on LPA/S1P GPCR of interest, 50 to 500 nM.

Consider `C[C@@H](OC(=O)Nc1c(-c2cc3sc(-c4ccc(C5(C(=O)O)CC5)c(F)c4)cc3s2)nnn1C)c1ccccc1` [IT296], for which the figures for the EC50 at LPA1 and at LPA/S1P GPCR of interest were 50 to 500 nM and less than 50 nM, respectively.

Turning to `CNS(=O)(=O)c1ccc(-c2ccc(-c3onc(C)c3NC(=O)O[C@H](C)c3ccccc3)cc2)cc1` [IT128], the EC50 on LPA1 and at LPA/S1P GPCR of interest was greater than 500 nM throughout.

With `Cc1noc(-c2cc3cc4sc(CC(=O)O)cc4cc3s2)c1NC(=O)O[C@H](C)c1ccccc1` [IT499], the EC50 at LPA1 and on LPA/S1P GPCR of interest was greater than 500 nM each time.

For `Cc1nsc(-c2ccc(-c3cc(F)c(OC(C)(C)C(=O)O)c(F)c3)cc2)c1NC(=O)O[C@H](C)c1ccccc1` [IT502], the EC50 on LPA1 was greater than 500 nM; at LPA/S1P GPCR of interest it was 50 to 500 nM.

On to `C[C@@H](OC(=O)Nc1c(-c2ccc(C#CC(=O)N[C@@H](C(=O)O)c3ccccc3)cc2)cnn1C)c1ccccc1` [IT401], for which the EC50 was 50 to 500 nM on LPA1 and greater than 500 nM at LPA/S1P GPCR of interest.

In the case of `Cc1noc(-c2ccc(-c3ccc(S(=O)(=O)CC4CC4)cc3)cc2)c1NC(=O)O[C@H](C)c1ccccc1` [IT174], the EC50 at LPA1 and at LPA/S1P GPCR of interest was greater than 500 nM throughout.

Take `C[C@@H](OC(=O)Nc1c(-c2cc(F)c(-c3nc4sc(C5(C(=O)O)CC5)cc4s3)cc2F)cnn1C)c1ccccc1` [IT279]: the figures for the EC50 on LPA1 and on LPA/S1P GPCR of interest were 50 to 500 nM and less than 50 nM, respectively.

Consider `Cc1noc(-c2ccc(-c3ccc(NC(=O)OC(C)(C)C)cc3)cc2)c1NC(=O)O[C@H](C)c1ccccc1` [IT194], for which the EC50 at LPA1 and on LPA/S1P GPCR of interest was greater than 500 nM each time.

With `Cc1onc(-c2cc3sc(C#CC4(C(=O)O)CC4)cc3s2)c1NC(=O)O[C@H](C)c1ccccc1` [IT418], the values for the EC50 at LPA1 and on LPA/S1P GPCR of interest were 50 to 500 nM and less than 50 nM, respectively.
